Molecular target: T1, human NEP (Homo sapiens, UniProt P08473)
T1 construct: purchased R&D Systems, Minneapolis, MN 1182-ZN
Experiment: In vitro enzyme inhibition assay at human NEP (fluorogenic peptide substrate)
Assay type: biochemical
Conditions: recombinant human NEP; 10 μM fluorogenic substrate Mca-D-Arg-Arg-Leu-Dap-(Dnp)-OH; 37° C.; 30 minute preincubation; read-out: pKi value at human NEP (converted)
Protocol: In Vitro Assays for the Quantitation of Inhibitor Potencies (IC50) at Human and Rat NEP, and Human ACE
The inhibitory activities of compounds at human and rat neprilysin (EC 3.4.24.11; NEP) and human angiotensin converting enzyme (ACE) were determined using in vitro assays as described below.
Recombinant human NEP and recombinant human ACE were obtained commercially (R&D Systems, Minneapolis, MN, catalog numbers 1182-ZN and 929-ZN, respectively). The fluorogenic peptide substrate Mca-D-Arg-Arg-Leu-Dap-(Dnp)-OH (Medeiros et al. (1997) Braz. J. Med. Biol. Res. 30:1157-62; Anaspec, San Jose, CA) and Abz-Phe-Arg-Lys(Dnp)-Pro-OH (Araujo et al. (2000) Biochemistry 39:8519-8525; Bachem, Torrance, CA) were used in the NEP and ACE assays respectively.
The assays were performed in 384-well white opaque plates at 37° C. using the fluorogenic peptide substrates at a concentration of 10 μM in Assay Buffer (NEP: 50 mM HEPES, pH 7.5, 100 mM NaCl, 0.01% polyethylene glycol sorbitan monolaurate (Tween-20), 10 μM ZnSO4; ACE: 50 mM HEPES, pH 7.5, 100 mM NaCl, 0.01% Tween-20, 1 μM ZnSO4).
Test compounds were assayed over the range of concentrations from 10 μM to 20 pM. Test compounds were added to the enzymes and incubated for 30 minute at 37° C. prior to initiating the reaction by the addition of substrate. Reactions were terminated after 20 minutes of incubation at 37° C. by the addition of glacial acetic acid to a final concentration of 3.6% (v/v).
Plates were read on a fluorometer with excitation and emission wavelengths set to 320 nm and 405 nm, respectively. Inhibition constants were obtained by nonlinear regression of the data using the equation (GraphPad Software, Inc., San Diego, CA): ν=ν0/[1+(I/K′)] where ν is the reaction rate, ν0 is the uninhibited reaction rate, I is the inhibitor concentration and K′ is the apparent inhibition constant.

T1 sequence (P08473 52-750 limits assumed): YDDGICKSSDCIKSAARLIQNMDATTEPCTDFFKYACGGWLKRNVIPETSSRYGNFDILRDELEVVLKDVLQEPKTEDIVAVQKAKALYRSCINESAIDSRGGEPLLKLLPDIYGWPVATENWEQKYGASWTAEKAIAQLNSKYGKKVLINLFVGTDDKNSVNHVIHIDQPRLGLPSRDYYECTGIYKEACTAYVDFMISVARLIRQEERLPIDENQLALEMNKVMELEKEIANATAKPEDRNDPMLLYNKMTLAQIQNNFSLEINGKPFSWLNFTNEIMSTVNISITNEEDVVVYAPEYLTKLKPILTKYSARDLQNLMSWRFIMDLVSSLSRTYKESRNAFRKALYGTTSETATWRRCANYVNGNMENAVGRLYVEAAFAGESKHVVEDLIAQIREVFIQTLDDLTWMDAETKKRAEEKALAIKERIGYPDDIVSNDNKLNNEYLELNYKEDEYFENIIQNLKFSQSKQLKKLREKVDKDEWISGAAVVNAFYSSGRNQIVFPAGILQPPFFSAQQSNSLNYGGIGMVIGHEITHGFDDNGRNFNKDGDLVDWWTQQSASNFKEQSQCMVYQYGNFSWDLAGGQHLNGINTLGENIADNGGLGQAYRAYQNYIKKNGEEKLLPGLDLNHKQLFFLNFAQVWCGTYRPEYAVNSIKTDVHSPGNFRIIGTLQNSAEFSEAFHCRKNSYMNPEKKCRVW

Compound | Ki [nM]
CC(C)CC(=O)OC[C@](C)(C[C@@H](Cc1ccc(-c2ccccc2)cc1)NC(=O)c1cnn[nH]1)C(=O)O [Example 1F, (2S,4R)-5-Biphenyl-4-yl-2-methyl-2-(3-methylbutyryloxymethyl)-4-[(3H-[1,2,3]triazole-4-carbonyl)amino]pentanoic Acid] | ≤ 1
COC[C@](C)(C[C@@H](Cc1ccc(-c2ccccc2)cc1)NC(=O)c1c[nH]nn1)C(=O)O [Example 1J, (2S,4R)-5-Biphenyl-4-yl-2-methoxymethyl-2-methyl-4-[(1H-[1,2,3]triazole-4-carbonyl)amino]pentanoic Acid] | 1 to 3.16
COC[C@](C)(C[C@@H](Cc1ccc(-c2cccc(Cl)c2)cc1)NC(=O)c1c[nH]nn1)C(=O)O [Example 2J, (2S,4R)-5-(3′-Chlorobiphenyl-4-yl)-2-methoxymethyl-2-methyl-4-[(1H-[1,2,3]triazole-4-carbonyl)amino]pentanoic Acid] | 1 to 3.16
COn1cc(C(=O)N[C@H](Cc2ccc(-c3cc(Cl)ccc3F)cc2)C[C@@](C)(CO)C(=O)O)nn1 [Example 4B, (2S,4R)-5-(5′-Chloro-2′-fluorobiphenyl-4-yl)-2-hydroxymethyl-4-[(1-methoxy-1H-[1.2.3]triazole-4-carbonyl)amino]-2-methylpentanoic Acid] | ≤ 1
C[C@@](CO)(C[C@@H](Cc1ccc(-c2cccc(C#N)c2)cc1)NC(=O)c1c[nH]nn1)C(=O)O [Example 2H, (2S,4R)-5-(3′-Cyanobiphenyl-4-yl)-2-hydroxymethyl-2-methyl-4-[(1H-[1,2,3]triazole-4-carbonyl)amino]pentanoic Acid] | 3.16 to 10
C[C@@](COCCO)(C[C@@H](Cc1ccc(-c2cc(Cl)ccc2F)cc1)NC(=O)c1cnn[nH]1)C(=O)O [Example 2S, (2S,4R)-5-(5′-Chloro-2′-fluorobiphenyl-4-yl)-2-(2-hydroxyethoxymethyl)-2-methyl-4-[(3H-[1,2,3]triazole-4-carbonyl)amino]pentanoic Acid] | 3.16 to 10
C[C@@](COCCCO)(C[C@@H](Cc1ccc(-c2cccc(Cl)c2)cc1)NC(=O)c1c[nH]nn1)C(=O)O [Example 2M, (2S,4R)-5-(3′-Chlorobiphenyl-4-yl)-2-(3-hydroxypropoxymethyl)-2-methyl-4-[(1H-[1,2,3]triazole-4-carbonyl)amino]pentanoic Acid] | ≤ 1
C[C@@](COCCCO)(C[C@@H](Cc1ccc(-c2cc(Cl)ccc2F)cc1)NC(=O)c1cnn[nH]1)C(=O)O [Example 2P, (2S,4R)-5-(5′-Chloro-2′-fluorobiphenyl-4-yl)-2-(3-hydroxypropoxymethyl)-2-methyl-4-[(3H-[1,2,3]triazole-4-carbonyl)amino]pentanoic Acid] | ≤ 1
COC[C@](C)(C[C@@H](Cc1ccc(-c2cc(Cl)ccc2F)cc1)NC(=O)c1c[nH]nn1)C(=O)O [Example 2N, (2S,4R)-5-(5′-Chloro-2′-fluorobiphenyl-4-yl)-2-methoxymethyl-2-methyl-4-[(1H-[1,2,3]triazole-4-carbonyl)amino]pentanoic Acid] | ≤ 1
C[C@@](CO)(C[C@@H](Cc1ccc(-c2cc(Cl)ccc2Cl)cc1)NC(=O)c1c[nH]nn1)C(=O)O [Example 2F, (2S,4R)-5-(2′,5′-Dichlorobiphenyl-4-yl)-2-hydroxymethyl-2-methyl-4-[(1H-[1,2,3]triazole-4-carbonyl)amino]pentanoic Acid] | ≤ 1
Cc1ccc(Cl)cc1-c1ccc(C[C@H](C[C@@](C)(CO)C(=O)O)NC(=O)c2c[nH]nn2)cc1 [Example 2G, (2S,4R)-5-(5′-Chloro-2′-methylbiphenyl-4-yl)-2-hydroxymethyl-2-methyl-4-[(1H-[1,2,3]triazole-4-carbonyl)amino]pentanoic Acid] | ≤ 1
COc1ccccc1-c1ccc(C[C@H](C[C@@](C)(CO)C(=O)O)NC(=O)c2c[nH]nn2)cc1 [Example 2A, (2S,4R)-2-Hydroxymethyl-5-(2′-methoxybiphenyl-4-yl)-2-methyl-4-[(1H-[1,2,3]triazole-4-carbonyl)amino]pentanoic Acid] | 1 to 3.16
CCOC[C@](C)(C[C@@H](Cc1ccc(-c2cc(Cl)ccc2F)cc1)NC(=O)c1c[nH]nn1)C(=O)O [Example 2O, (2S,4R)-5-(5′-Chloro-2′-fluoro-biphenyl-4-yl)-2-ethoxymethyl-2-methyl-4-[(1H-[1,2,3]triazole-4-carbonyl)amino]pentanoic Acid] | ≤ 1
CC(=O)OC[C@](C)(C[C@@H](Cc1ccc(-c2ccccc2)cc1)NC(=O)c1cnn[nH]1)C(=O)O [Example 1D, (2S,4R)-2-Acetoxymethyl-5-biphenyl-4-yl-2-methyl-4-[(3H-[1,2,3]triazole-4-carbonyl)amino]pentanoic Acid] | ≤ 1

Results, then the compound that gave them:

Ki [nM] | Compound
≤ 1 | CC(C)c1cc(C(=O)N[C@H](Cc2ccc(-c3cc(Cl)ccc3F)cc2)C[C@@](C)(CO)C(=O)O)[nH]n1 [Example 7C, (2S,4R)-5-(5′-Chloro-2′-fluorobiphenyl-4-yl)-2-hydroxymethyl-4-[(5-isopropyl-2H-pyrazole-3-carbonyl)amino]-2-methylpentanoic Acid]
≤ 1 | CCOC[C@](C)(C[C@@H](Cc1ccc(-c2cc(Cl)ccc2F)cc1)NC(=O)c1cc(O)no1)C(=O)O [Example 6N, (2S,4R)-5-(5′-Chloro-2′-fluorobiphenyl-4-yl)-2-ethoxymethyl-4-[(3-hydroxyisoxazole-5-carbonyl)amino]-2-methylpentanoic Acid]
≤ 1 | COc1cc(C(=O)N[C@H](Cc2ccc(-c3cc(Cl)ccc3F)cc2)C[C@@](C)(CO)C(=O)O)n[nH]1 [Example 7E, (2S,4R)-5-(5′-Chloro-2′-fluorobiphenyl-4-yl)-2-hydroxymethyl-4-[(5-methoxy-1H-pyrazole-3-carbonyl)amino]-2-methylpentanoic Acid]
≤ 1 | CCOC[C@](C)(C[C@@H](Cc1ccc(-c2cc(Cl)ccc2F)cc1)NC(=O)c1cc(CC)no1)C(=O)O [Example 6O, (2S,4R)-5-(5′-Chloro-2′-fluorobiphenyl-4-yl)-2-ethoxymethyl-4-[(3-ethylisoxazole-5-carbonyl)amino]-2-methylpentanoic Acid]
≤ 1 | CCOc1cc(C(=O)N[C@H](Cc2ccc(-c3cccc(Cl)c3)cc2)C[C@@](C)(CO)C(=O)O)n[nH]1 [Example 7A, (2S,4R)-5-(3′-Chlorobiphenyl-4-yl)-4-[(5-ethoxy-1H-pyrazole-3-carbonyl)amino]-2-hydroxymethyl-2-methylpentanoic Acid]
≤ 1 | CCc1cc(C(=O)N[C@H](Cc2ccc(-c3cc(Cl)ccc3F)cc2)C[C@@](C)(CO)C(=O)O)on1 [Example 6H]
≤ 1 | CCOc1cc(C(=O)N[C@H](Cc2ccc(-c3cc(Cl)ccc3F)cc2)C[C@@](C)(CO)C(=O)O)n[nH]1 [Example 7B, (2S,4R)-5-(5′-Chloro-2′-fluorobiphenyl-4-yl)-4-[(5-ethoxy-1H-pyrazole-3-carbonyl)-amino]-2-hydroxymethyl-2-methylpentanoic Acid]
≤ 1 | COc1cc(C(=O)N[C@H](Cc2ccc(-c3cc(Cl)ccc3F)cc2)C[C@@](C)(CO)C(=O)O)on1 [Example 6G, (2S,4R)-5-(5′-Chloro-2′-fluorobiphenyl-4-yl)-2-hydroxymethyl-4-[(3-methoxyisoxazole-5-carbonyl)amino]-2-methylpentanoic Acid]
1 to 3.16 | COC[C@](C)(C[C@@H](Cc1ccc(-c2cc(Cl)ccc2F)cc1)NC(=O)c1cc(C(C)=O)n[nH]1)C(=O)O [Example 8B, (2S,4R)-4-[(5-Acetyl-2H-pyrazole-3-carbonyl)amino]-5-(5′-chloro-2′-fluorobiphenyl-4-yl)-2-methoxymethyl-2-methylpentanoic Acid]
≤ 1 | COc1cc(C(=O)N[C@H](Cc2ccc(-c3cccc(Cl)c3)cc2)C[C@@](C)(CO)C(=O)O)on1 [Example 6A, (2S,4R)-5-(3′-Chlorobiphenyl-4-yl)-2-hydroxymethyl-4-[(3-methoxyisoxazole-5-carbonyl)amino]-2-methylpentanoic Acid]
1 to 3.16 | CCOc1cc(C(=O)N[C@H](Cc2ccc(-c3cc(Cl)ccc3F)cc2)C[C@@](C)(COC)C(=O)O)[nH]n1 [Example 7D, (2S,4R)-5-(5′-Chloro-2′-fluorobiphenyl-4-yl)-4-[(5-ethoxy-2H-pyrazole-3-carbonyl)-amino]-2-methoxymethyl-2-methylpentanoic Acid]
≤ 1 | CCCc1cc(C(=O)N[C@H](Cc2ccc(-c3cc(Cl)ccc3F)cc2)C[C@@](C)(CO)C(=O)O)on1 [Example 6J, (2S,4R)-5-(5′-Chloro-2′-fluorobiphenyl-4-yl)-2-hydroxymethyl-2-methyl-4-[(3-propylisoxazole-5-carbonyl)amino]pentanoic Acid]

From patent US11919888B2, “Neprilysin inhibitors” (THERAVANCE BIOPHARMA R&D IP, LLC, priority 2012, dated 2024)
